In paper PMC6017444, “Effects of Lysozyme on the Activity of Ionic of Fluoroquinolone Species” (Molecules : A Journal of Synthetic Chemistry and Natural …, 2018):

Target: T1, lysozyme (Lyz) from chicken egg white (Gallus gallus, UniProt P00698)
T1 construct: native mature protein from egg white (signal peptide removed), 129 residues, four disulfides, commercial (Sigma-Aldrich), used without further purification
Assay: quenching of ligand fluorescence by protein (excitation […] nm), Stern-Volmer, static
Conditions: pH 7.4, 298 K, 10 mM Trizma; zwitterionic species; KSV taken as binding constant

T1 sequence (P00698 19-147): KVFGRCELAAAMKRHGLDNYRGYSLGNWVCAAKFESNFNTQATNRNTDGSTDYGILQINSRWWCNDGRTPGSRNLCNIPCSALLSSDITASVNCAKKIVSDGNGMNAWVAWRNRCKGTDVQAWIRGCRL

Stern-Volmer binding constant (KSV) | Structure (SMILES)
(0.27 ± 0.02) × 10^4 L mol^-1 | C[C@H]1COc2c(N3CCN(C)CC3)c(F)cc3c(=O)c(C(=O)O)cn1c23 [Levofloxacin]
(1.80 ± 0.01) × 10^4 L mol^-1 | O=C(O)c1cn(C2CC2)c2cc(N3CCNCC3)c(F)cc2c1=O [Ciprofloxacin, 1-cyclopropyl-6-fluoro-4-oxo-7-(piperazin-1-yl)-1,4-dihydroquinoline-3-carboxylic acid]
